Results: patent publication US4579840A, “Method of blocking immune complex binding to immunoglobulin Fc receptors” (Immunetech Pharmaceuticals, priority 1983, dated 1986)
Ends that are not written are not given here. Peptide text beside a SMILES is read from it. * marks the point of attachment. Cbz = O=C(OCc1ccccc1)*

Columns and labels:
[1] = biological target: T1, MONOCYTE/MACROPHAGE Fc Receptor IgE (Homo sapiens, UniProt P06734); assay: Rosette inhibition assay, monocyte/macrophage IgE Fc receptor; format: binding; conditions: human monocytes or U937; relative to intact monomeric myeloma IgE at equal concentration; NS = not significantly different from 0
T1 construct: the cells expressing surface Fc receptors formed rosettes; endogenous in cells; host or cells: fresh human monocytes or U937
T1 sequence (P06734 1-321): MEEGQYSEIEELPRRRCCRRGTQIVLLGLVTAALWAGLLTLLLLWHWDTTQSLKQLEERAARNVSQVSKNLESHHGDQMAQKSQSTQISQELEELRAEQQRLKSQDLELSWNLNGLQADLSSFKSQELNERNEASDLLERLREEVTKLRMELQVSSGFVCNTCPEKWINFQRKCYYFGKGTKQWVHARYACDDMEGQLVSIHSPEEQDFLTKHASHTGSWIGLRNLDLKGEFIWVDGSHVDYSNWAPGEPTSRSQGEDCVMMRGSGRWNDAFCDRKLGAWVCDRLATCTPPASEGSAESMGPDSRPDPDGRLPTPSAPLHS
Method: (§1) The Fc receptor blocking activity of the subject peptides was assessed using well established techniques and procedures. In particular, a rosette assay was employed which uses either monomeric, chemically or heat aggregated human IgG or IgE obtained from human myeloma sera. (Gonzalez-Molina, et al., J. Clin. Invest., 59, 616 (1977); Spiegelberg, et al. in Immunoassays: Clinical Laboratory Techniques for the 1980's (Alan R. Liss: New York, 1980), pp. 287-300). The IgG or IgE is then adsorbed to ox-erythrocytes which has been previously treated with trypsin and pyruvic aldehyde. Fresh human cell PMNs, monocytes and basophils from a patient with basophilic chronic myelogenous leukemia or human cell lines (RPMI-8866, and Daudi for lymphocyte Fc receptors and U937 for monocyte/macrophage Fc receptors) were then incubated in the presence or absence of inhibitors (monomeric IgG or IgE or peptides) at equal concentrations for fifteen minutes before addition of the indicator oxerythrocytes. In the absence of inhibitors, the cells expressing surface Fc receptors formed rosettes, clusters of three or more indicator erythrocytes that bound to the cells by virtue of exposed Fc regions on the erythrocyte surface. Addition of inhibitor myeloma proteins or inhibitor peptides produced a reproducable reduction of rosette formation, […], phosphate buffered isotonic saline, was used alone as control and then multiplying the calculated quotient by 100.
(§2) Table 1 presents the inhibition observed by representative peptide inhibitors calculated as a percentage of the inhibition observed with intact, monomeric myeloma proteins. Thus, 50 percent inhibition implys that the peptide was 50% as inhibitory as the intact myeloma protein to which it was compared.

[2] = biological target: T2, LYMPHOCYTE Fc Receptor IgG (Homo sapiens, UniProt P31994); assay: Rosette inhibition assay, lymphocyte IgG Fc receptor; format: binding; conditions: RPMI-8866 and Daudi cell lines; relative to intact monomeric myeloma IgG at equal concentration; NS = not significantly different from 0
T2 construct: the cells expressing surface Fc receptors formed rosettes; endogenous in cells; host or cells: RPMI-8866 / Daudi
T2 sequence (P31994 43-310): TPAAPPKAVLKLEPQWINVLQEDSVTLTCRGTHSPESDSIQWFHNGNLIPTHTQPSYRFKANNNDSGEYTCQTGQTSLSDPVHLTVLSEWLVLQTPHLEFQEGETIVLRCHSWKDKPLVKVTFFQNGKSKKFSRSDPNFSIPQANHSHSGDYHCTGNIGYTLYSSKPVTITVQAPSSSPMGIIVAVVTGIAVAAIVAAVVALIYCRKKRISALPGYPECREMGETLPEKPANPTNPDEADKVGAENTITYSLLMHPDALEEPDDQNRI
Method: as §1, §2

BASOPHIL Fc Receptor IgE = biological target: T3, BASOPHIL Fc Receptor IgE (Homo sapiens, UniProt P12319); assay: Rosette inhibition assay, basophil IgE Fc receptor; format: binding; conditions: basophils from a patient with basophilic chronic myelogenous leukemia; relative to monomeric myeloma IgE; NS = not significantly different from 0
T3 construct: the cells expressing surface Fc receptors formed rosettes; endogenous in cells; host or cells: basophils of a patient with basophilic chronic myelogenous leukemia
T3 sequence (P12319 26-257): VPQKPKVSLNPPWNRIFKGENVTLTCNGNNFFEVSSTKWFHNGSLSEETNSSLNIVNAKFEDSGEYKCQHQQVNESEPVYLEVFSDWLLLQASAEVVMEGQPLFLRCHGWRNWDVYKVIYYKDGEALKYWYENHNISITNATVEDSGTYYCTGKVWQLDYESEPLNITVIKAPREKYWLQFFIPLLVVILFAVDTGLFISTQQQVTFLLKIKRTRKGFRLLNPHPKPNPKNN
T3 sequence (Q01362 1-244 partner): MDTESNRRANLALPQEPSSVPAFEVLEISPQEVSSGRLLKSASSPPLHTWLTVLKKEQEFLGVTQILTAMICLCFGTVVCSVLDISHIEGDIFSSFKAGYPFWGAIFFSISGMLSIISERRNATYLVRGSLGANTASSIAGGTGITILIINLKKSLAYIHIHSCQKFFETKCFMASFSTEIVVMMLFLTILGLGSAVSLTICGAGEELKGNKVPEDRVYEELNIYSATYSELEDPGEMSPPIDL
T3 sequence (P30273 19-86 partner): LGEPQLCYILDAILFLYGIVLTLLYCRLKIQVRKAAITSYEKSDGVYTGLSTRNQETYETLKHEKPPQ
Method: as §1, §2

[3] = biological target: T4, LYMPHOCYTE Fc Receptor IgE (Homo sapiens, UniProt P06734); assay: Rosette inhibition assay, lymphocyte IgE Fc receptor; format: binding; conditions: RPMI-8866 and Daudi cell lines; relative to intact monomeric myeloma IgE at equal concentration; NS = not significantly different from 0
T4 construct: the cells expressing surface Fc receptors formed rosettes; endogenous in cells; host or cells: RPMI-8866 / Daudi
T4 sequence (P06734 1-321): T1 sequence (P06734 1-321)
Method: as §1, §2

C1q Fc receptor = C1q Fc receptor (Homo sapiens, UniProt P02745+P02746+P02747); conditions: peptides adsorbed to erythrocytes; Johnson and Thames 1975, Boackle et al. 1979; cited from earlier work
C1q Fc receptor, sequence (P02745 23-245): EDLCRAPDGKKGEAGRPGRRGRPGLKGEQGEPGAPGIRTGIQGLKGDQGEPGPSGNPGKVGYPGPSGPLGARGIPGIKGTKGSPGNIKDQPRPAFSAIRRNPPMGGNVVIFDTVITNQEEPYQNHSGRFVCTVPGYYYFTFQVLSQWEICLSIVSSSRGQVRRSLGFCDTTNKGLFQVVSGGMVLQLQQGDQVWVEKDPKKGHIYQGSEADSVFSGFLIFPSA
C1q Fc receptor, sequence (P02746 28-253): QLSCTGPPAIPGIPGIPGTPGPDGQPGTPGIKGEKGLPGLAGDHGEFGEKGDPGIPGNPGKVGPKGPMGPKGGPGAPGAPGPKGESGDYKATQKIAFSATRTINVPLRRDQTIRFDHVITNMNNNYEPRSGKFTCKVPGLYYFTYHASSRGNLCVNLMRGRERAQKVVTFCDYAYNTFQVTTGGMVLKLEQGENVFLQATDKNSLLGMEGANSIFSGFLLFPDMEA
C1q Fc receptor, sequence (P02747 29-245): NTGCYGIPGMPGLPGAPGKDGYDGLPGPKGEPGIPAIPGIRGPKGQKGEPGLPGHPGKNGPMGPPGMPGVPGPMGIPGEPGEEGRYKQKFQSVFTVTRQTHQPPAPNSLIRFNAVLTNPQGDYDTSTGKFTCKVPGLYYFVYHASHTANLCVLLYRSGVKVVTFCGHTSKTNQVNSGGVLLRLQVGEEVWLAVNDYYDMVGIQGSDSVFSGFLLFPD
C1q Fc receptor, sequence (P00736 18-705 partner): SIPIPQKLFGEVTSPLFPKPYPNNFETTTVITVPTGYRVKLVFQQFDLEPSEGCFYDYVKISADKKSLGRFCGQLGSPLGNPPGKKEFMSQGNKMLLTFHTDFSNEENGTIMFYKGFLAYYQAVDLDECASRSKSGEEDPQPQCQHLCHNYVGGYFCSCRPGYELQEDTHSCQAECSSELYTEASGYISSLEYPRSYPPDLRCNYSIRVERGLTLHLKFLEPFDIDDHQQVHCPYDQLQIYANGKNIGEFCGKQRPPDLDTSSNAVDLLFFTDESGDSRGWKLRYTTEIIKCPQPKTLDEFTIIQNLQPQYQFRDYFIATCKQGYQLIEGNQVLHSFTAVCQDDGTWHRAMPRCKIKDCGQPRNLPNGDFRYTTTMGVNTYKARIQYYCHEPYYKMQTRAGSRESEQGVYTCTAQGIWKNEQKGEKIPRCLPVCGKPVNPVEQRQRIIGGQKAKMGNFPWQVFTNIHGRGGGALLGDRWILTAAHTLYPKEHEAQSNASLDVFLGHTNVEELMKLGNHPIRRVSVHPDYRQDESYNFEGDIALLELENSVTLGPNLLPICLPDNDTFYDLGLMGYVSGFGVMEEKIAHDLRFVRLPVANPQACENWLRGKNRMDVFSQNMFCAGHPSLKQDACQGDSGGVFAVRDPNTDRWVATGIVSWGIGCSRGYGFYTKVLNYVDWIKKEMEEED
C1q Fc receptor, sequence (P09871 16-688 partner): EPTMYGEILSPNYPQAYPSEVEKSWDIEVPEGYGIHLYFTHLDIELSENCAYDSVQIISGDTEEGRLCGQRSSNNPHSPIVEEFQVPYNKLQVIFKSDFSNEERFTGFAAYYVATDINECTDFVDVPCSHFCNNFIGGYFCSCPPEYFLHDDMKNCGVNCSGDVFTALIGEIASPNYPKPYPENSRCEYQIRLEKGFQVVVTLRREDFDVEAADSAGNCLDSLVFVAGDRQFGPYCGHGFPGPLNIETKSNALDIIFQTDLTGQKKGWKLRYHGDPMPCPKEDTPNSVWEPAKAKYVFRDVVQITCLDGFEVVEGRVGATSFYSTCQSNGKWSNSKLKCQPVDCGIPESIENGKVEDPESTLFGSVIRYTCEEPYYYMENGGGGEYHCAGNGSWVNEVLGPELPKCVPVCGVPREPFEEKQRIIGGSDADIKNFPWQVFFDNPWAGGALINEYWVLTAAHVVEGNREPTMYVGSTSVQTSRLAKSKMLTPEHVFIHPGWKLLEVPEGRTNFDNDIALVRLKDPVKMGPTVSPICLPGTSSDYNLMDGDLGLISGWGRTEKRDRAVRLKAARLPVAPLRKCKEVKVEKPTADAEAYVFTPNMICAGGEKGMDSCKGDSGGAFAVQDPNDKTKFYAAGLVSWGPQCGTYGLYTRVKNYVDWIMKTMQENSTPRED

Row | Compound | Rosette inhibition expressed as percent inhibition by monomeric IgE; monocyte/macrophage Fc receptor, IgE [1] | Rosette inhibition expressed as percent inhibition by monomeric IgG; lymphocyte Fc receptor, IgG [2] | Rosette inhibition expressed as percent inhibition by monomeric IgE; basophil Fc receptor, IgE (BASOPHIL Fc Receptor IgE) | Rosette inhibition expressed as percent inhibition by monomeric IgE; lymphocyte Fc receptor, IgE [3] | complement activating ability (C1q-mediated cell lysis) (C1q Fc receptor)
1 | CC(=O)N[C@@H](CCC(N)=O)C(=O)N1CCC[C@H]1C(=O)N[C@@H](CCC(=O)O)C(=O)N[C@@H](CC(N)=O)C(=O)O [Ac--Gln--Pro--Glu--Asn, Ac-Gln-Pro-Glu-Asn] (Ac-QPEN-OH) | 55% | 94% | 89% |  | 
2 | N=C(N)NCCC[C@H](NC(=O)[C@H](CO)NC(=O)[C@H](CCCCN)NC(=O)[C@@H](N)CC(=O)O)C(=O)O [Asp--Lys--Ser--Arg, Asp-Lys-Ser-Arg] (H-DKSR-OH) | 38% | 86% | 89% | 23% | 
3 | NCCCC[C@H](NC(=O)[C@H](CO)NC(=O)[C@H](CCCCN)NC(=O)[C@@H](N)CC(=O)O)C(=O)O [Asp--Lys--Ser--Lys] (H-DKSK-OH) |  | 16% | 94% |  | 
4 | NCCCC[C@H](NC(=O)[C@H](CCC(N)=O)NC(=O)[C@@H](N)CCC(=O)O)C(=O)N[C@@H](CC(=O)O)C(=O)O [Glu--Gln--Lys--Asp] (H-EQKD-OH) |  |  | 106% |  | 
5 | C[C@H](NC(=O)[C@H](CCCNC(=N)N)NC(=O)[C@@H](N)[C@@H](C)O)C(=O)N[C@@H](CCC(=O)O)C(=O)O [Thr--Arg--Ala--Glu, Thr-Arg-Ala-Glu] (H-TRAE-OH) | 20% | 49% | 41% |  | 
6 | DKSRAQQGN [Asp--Lys--Ser--Arg--Ala--Gln--Gln--Gly--Asn] |  |  | 74% |  | 
7 | DSNPR [Asp--Ser--Asn--Pro--Arg] | 48% |  | 37% |  | 
8 | EWYERG |  |  |  |  | less active
9 | KADWYVDG |  |  |  |  | about as effective in activating C1q-mediated cell lysis as immune complexes formed by heat aggregated IgG
10 | KFDAYVDG |  |  |  |  | less active
11 | KFDWAVDG |  |  |  |  | less active
12 | KFEWYVEGVE |  |  |  |  | less active
13 | KYDWYVDG |  |  |  |  | less active
14 | PDARHS [Pro--Asp--Ala--Arg--His--Ser, Pro-Asp-Ala-Arg-His-Ser] | 87% | 95% | 101% | 98% | 
15 | PDARHSTTQPR [Pro--Asp--Ala--Arg--His--Ser--Thr--Thr--Gln--Pro--Arg] | 103% | 92% | ~ 130% | 100% | 
16 | RSTTKTSGPR | 87% | 100% | 110% | 87% | 
17 | SVMHEALHNHYTQK [Ser--Val--Met--His--Glu--Ala--Leu--His--Asn--His--Tyr--Thr--Gln--Lys] | 28% |  | 74% |  | 
18 | TISKAKGQPR | 87% | 84% | 133% | 106% | 
19 | TRAEAEQKD [Thr--Arg--Ala--Glu--Ala--Glu--Gln--Lys--Asp] | 21% |  | 108% |  | 
20 | TTQPR [Thr--Thr--Gln--Pro--Arg] | 58% | 36% | 80% |  | 
21 | Trp-Leu |  |  |  |  | inactive
22 | TrpTyrValAspGly (WYVDG; printed: TrpTyrValAspGly) |  |  |  |  | less active
23 | Tyr-Glu-Ala-Gly (YEAG; printed: Tyr-Glu-Ala-Gly) |  |  |  |  | inactive
24 | TyrGluArgGly (YERG; printed: TyrGluArgGly) |  |  |  |  | less active
25 | VHEAKAKPGR |  |  |  |  | less active
26 | YDYYVDG |  |  |  |  | less active
27 | YSKLTVDKSR [reference compound] | 33% | 29% | 89% |  | 
28 | YVEWGERG |  |  |  |  | less active
29 | ZAsnTrpTyrVal (Cbz-NWYV) |  |  |  |  | less active
30 | ZValGluTrpGly (Cbz-VEWG) |  |  |  |  | less active
